Assay results from US20060281736A1, “Product comprising at least one phosphatase cdc25 inhibitor combined with at least one other anticancer agent” (priority 2003, published 2006).
Structures can show the parent of a compound that is named as a salt.

What was measured:
[1] = test system: HT-29 cell line (human colon cancer cells); experiment: Test of cell proliferation of the HT-29 cells (WST1), products individually or in combination; type: cell-based; details: 120 hours
Description: A) Test of Cell Proliferation of the HT-29 Cells
The protocol for the test used to obtain the results shown is described below:
The HT-29 cell line (human colon cancer cells) were acquired from the American Tissue Culture Collection (Rockville, Md., USA).
The HT-29 cells (2000 cells/well) are cultured in 96-well plates. On day 0, these cells are seeded in 90 μl of Dulbecco's modified Eagle medium (Gibco-Brl, Cergy-Pontoise, France) completed with 10% foetal calf serum inactived by heating (Gibco-Brl, Cergy-Pontoise, France), 50000 units/l of penicillin and 50 mg/l streptomycin (Gibco-Brl, Cergy-Pontoise, France), and 2 mM of glutamine (Gibco-Brl, Cergy-Pontoise, France).
The cells were treated simultaneously with concentrations of two products individually or in combination on Day 1 and for 120 hours.
At the end of the of this period (D6), quantification of cell proliferation is evaluated by a colorimetric test based on the cleavage of the tetrazolium salt WST1 by mitochondrial dehydrogenases in living cells leading to the formation of formazan (Boehringer Mannheim, Meylan, France). These tests are carried out at least in duplicate with 4 determinations for each individual product and for each combination tested. This allows determination of the number of living cells at the end of each treatment.

[2] = test system: Mia-PaCa2 (human pancreas cancer cells); experiment: Antiproliferative activity on Mia-Paca2 cells (WST1); type: cell-based; details: MIA PaCa-2, 96 hours treatment, read-out: IC50 on the cell proliferation of Mia-Paca2 lines
Description: ii) Characterization of the Antiproliferative Activity:
By way of example, the effect of a treatment on two human cell lines Mia-Paca2 and DU145 with the compounds of the examples described previously will be studied. The cell lines DU145 (human prostate cancer cells) and Mia-PaCa2 (human pancreas cancer cells) were acquired from the American Tissue Culture Collection (Rockville, Md., USA). The cells placed in 80 μl of Dulbecco's Modified Eagle's medium (Gibco-Brl, Cergy-Pontoise, France) completed with 10% foetal calf serum inactivated by heating (Gibco-Brl, Cergy-Pontoise, France), 50,000 units/l of penicillin and 50 mg/l of streptomycin (Gibco-Brl, Cergy-Pontoise, France), and 2 mM of glutamine (Gibco-Brl, Cergy-Pontoise, France) were seeded on a 96-well plate on day 0. The cells were treated on day 1 for 96 hours with increasing concentrations of each of the compounds to be tested up to 10 μM. At the end of this period, quantification of cell proliferation is evaluated by a colorimetric test based on the cleavage of the tetrazolium salt WST1 by the mitochondrial dehydrogenases in viable cells leading to the formation of formazan (Boehringer Mannheim, Meylan, France). These tests are carried out in duplicate with 8 determinations per concentration tested. For each compound to be tested, the values included in the linear part of the sigmoid were retained for a linear regression analysis and used to estimate the inhibitory concentration IC50. The products are solubilized in dimethylsulphoxide (DMSO) at 10^−2 M and finally used in culture with 0.1% DMSO.

Row | Molecule | IC50 [2] [µM] | other results
1 | 4-(2-bromophenyl)-1-(2-(1-((4-cyano-3-methoxy)phenylmethyl)imidazo-5-yl)-1-oxoethyl)-1,2-dihydro-8-fluoroimidazo[1,2a][1,4]-benzodiazepine [Compound B7] |  | % of surviving cells ([1]; Combination 7: Compound B7 (10^−5 M) individually): 92%
2 | CO[C@@]12[C@H](COC(N)=O)C3=C(C(=O)C(C)=C(N)C3=O)N1C[C@@H]1N[C@@H]12 [Compound B2, mitomycin C] |  | % of surviving cells ([1]; Combination 2: Compound B2 (10^−7 M) individually): 49%; % of surviving cells ([1]; Combination 25: Compound B2 (5 × 10^−8 M) individually): 82%; % of surviving cells ([1]; Combination 32: Compound B2 (5 × 10^−8 M) individually): 88%; % of surviving cells ([1]; Combination 33: Compound B2 (5 × 10^−8 M) individually): 88%
3 | N.N.[Cl][Pt][Cl] [Compound B4, cisplatin] |  | % of surviving cells ([1]; Combination 4: Compound B4 (10^−5 M) individually): 33%; % of surviving cells ([1]; Combination 28: Compound B4 (10^−5 M) individually): 75%; % of surviving cells ([1]; Combination 35: Compound B4 (10^−5 M) individually): 85%
4 | CN(Cc1cnc2nc(N)nc(N)c2n1)c1ccc(C(=O)N[C@@H](CCC(=O)O)C(=O)O)cc1 [Compound B5, methotrexate] |  | % of surviving cells ([1]; Combination 5: Compound B5 (5 × 10^−8 M) individually): 83%
5 | CCc1c2c(nc3ccc(O)cc13)-c1cc3c(c(=O)n1C2)COC(=O)[C@]3(O)CC [Compound B11, SN-38] |  | % of surviving cells ([1]; Combination 11: Compound B11 (5 × 10^−9 M) individually): 98%; % of surviving cells ([1]; Combination 24: Compound B11 (10^−8 M) individually): 73%; % of surviving cells ([1]; Combination 30: Compound B11 (10^−8 M) individually): 67%
6 | Cc1nc2c(s1)C(=O)C=C(NC1CCc3ccccc31)C2=O (stereo not drawn) [Example 28, 5-(2,3-dihydro-1H-inden-1-ylamino)-2-methyl-1,3-benzothiazole-4,7-dione] | ≤ 10 | 
7 | Cc1nc2c(s1)C(=O)C=C(N(CCN(C)C)Cc1ccccc1)C2=O [Example 29, 5-{benzyl[2-(dimethylamino)ethyl]amino}-2-methyl-1,3-benzothiazole-4,7-dione] | ≤ 10 | 
8 | Cc1nc2c(s1)C(=O)C=C(NCCCN(C)C(=O)OC(C)(C)C)C2=O [Example 30, tert-butyl methyl{3-[(2-methyl-4,7-dioxo-4,7-dihydro-1,3-benzothiazol-5-yl)amino]propyl}carbamate] | ≤ 10 | 
9 | Cc1nc2c(s1)C(=O)C=C(NCCCNC(=O)OC(C)(C)C)C2=O [Example 31, tert-butyl 3-[(2-methyl-4,7-dioxo-4,7-dihydro-1,3-benzothiazol-5-yl)amino]propylcarbamate] | ≤ 10 | 
10 | CNCCCNC1=CC(=O)c2sc(C)nc2C1=O [Example 32, 2-methyl-5-{[3-(methylamino)propyl]amino}-1,3-benzothiazole-4,7-dione hydrochloride] | ≤ 10 | 
11 | Cc1nc2c(s1)C(=O)C(Cl)=C(NCCN(C)C)C2=O [Example 34, 6-chloro-5-{[2-(dimethylamino)ethyl]amino}-2-methyl-1,3-benzothiazole-4,7-dione] | ≤ 10 | 
12 | CCCCSC1=C(NCCN(C)C)C(=O)c2nc(C)sc2C1=O [Example 36, 6-(butylthio)-5-{[2-(dimethylamino)ethyl]amino}-2-methyl-1,3-benzothiazole-4,7-dione] | ≤ 10 | 
13 | CN(C)CCNC1=CC(=O)c2sc(CN3CCOCC3)nc2C1=O [Example 37, 5-{[2-(dimethylamino)ethyl]amino}-2-(morpholin-4-ylmethyl)-1,3-benzothiazole-4,7-dione] | ≤ 10 | 
14 | CN(C)CCNC1=CC(=O)c2sc(CN3CCN(c4ccccc4)CC3)nc2C1=O [Example 38, 5-{1[2-(dimethylamino)ethyl]amino}-2-[(4-phenylpiperazin-1-yl)methyl]-1,3-benzothiazole-4,7-dione] | ≤ 10 | 
15 | CN(C)CCNC1=CC(=O)c2sc(CN3CCCCC3)nc2C1=O [Example 39, 5-{[2-(dimethylamino)ethyl]amino}-2-(piperidin-1-ylmethyl)-1,3-benzothiazole-4,7-dione] | ≤ 10 | 

Further lines, with some results ahead:

Row | IC50 [2] [µM] | Molecule | other results
16 | ≤ 10 | Cc1nc2c(s1)C(=O)C=C(NCCN1CCOCC1)C2=O [Example 1, 2-methyl-5-{[2-(4-morpholinyl)ethyl]amino}-1,3-benzothiazole-4,7-dione] | 
17 | ≤ 10 | Cc1nc2c(s1)C(=O)C=C(NCCN(C)C)C2=O [Example 2, 5-{[2-(dimethylamino)ethyl]amino}-2-methyl-1,3-benzothiazole-4,7-dione hydrochloride] | 
18 | ≤ 10 | Cc1nc2c(s1)C(=O)C=C(NCCCCCCN(C)C)C2=O [Example 3, 5-{[6-(dimethylamino)hexyl]amino}-2-methyl-1,3-benzothiazole-4,7-dione] | 
19 | ≤ 10 | Cc1nc2c(s1)C(=O)C=C(NCC(C)(C)CN(C)C)C2=O [Example 4, 5-{[3-(dimethylamino)-2,2-dimethylpropyl]amino}-2-methyl-1,3-benzothiazole-4,7-dione] | 
20 | ≤ 10 | Cc1nc2c(s1)C(=O)C=C(NCCCN1CCN(C)CC1)C2=O [Example 5, 2-methyl-5-{[3-(4-methyl-1-piperazinyl)propyl]amino}-1,3-benzothiazole-4,7-dione] | 
21 | ≤ 10 | CCCCCC(CC)NC1=CC(=O)c2sc(C)nc2C1=O (stereo not drawn) [Example 6, 5-[(1-ethylhexyl)amino]-2-methyl-1,3-benzothiazole-4,7-dione] | 
22 | ≤ 10 | Cc1nc2c(s1)C(=O)C=C(NCC13CC4CC(CC(C4)C1)C3)C2=O [Example 7, 5-[(1-adamantylmethyl)amino]-2-methyl-1,3-benzothiazole-4,7-dione] | 
23 | ≤ 10 | Cc1nc2c(s1)C(=O)C=C(NCc1cccs1)C2=O [Example 8, 2-methyl-5-[(2-thienylmethyl)amino]-1,3-benzothiazole-4,7-dione] | 
24 | ≤ 10 | Cc1nc2c(s1)C(=O)C=C(NCc1cccc(Cl)c1)C2=O [Example 9, 5-[(3-chlorobenzyl)amino]-2-methyl-1,3-benzothiazole-4,7-dione] | 
25 | ≤ 10 | Cc1nc2c(s1)C(=O)C=C(N1CCN(Cc3ccccc3)CC1)C2=O [Example 14, 5-(4-benzyl-1-piperazinyl)-2-methyl-1,3-benzothiazole-4,7-dione] | 
26 | ≤ 10 | COCCNC1=CC(=O)c2sc(C)nc2C1=O [Example 18, 5-[(2-methoxyethyl)amino]-2-methyl-1,3-benzothiazole-4,7-dione] | 
27 | ≤ 10 | Cc1nc2c(s1)C(=O)C=C(NCCN1CCCC1)C2=O [Example 19, 2-methyl-5-[(2-pyrrolidin-1-ylethyl)amino]-1,3-benzothiazole-4,7-dione] | 
28 | ≤ 10 | Cc1nc2c(s1)C(=O)C=C(NCCN1CCCCC1)C2=O [Example 20, 2-methyl-5-[(2-piperidin-1-ylethyl)amino]-1,3-benzothiazole-4,7-dione] | 
29 | ≤ 10 | Cc1nc2c(s1)C(=O)C=C(NCCN(C(C)C)C(C)C)C2=O [Example 21, 5-{[2-(diisopropylamino)ethyl]amino}-2-methyl-1,3-benzothiazole-4,7-dione] | 
30 | ≤ 10 | Cc1nc2c(s1)C(=O)C=C(NC1CCN(Cc3ccccc3)C1)C2=O (stereo not drawn) [Example 22, 5-[(1-benzylpyrrolidin-3-yl)amino]-2-methyl-1,3-benzothiazole-4,7-dione] | 
31 | ≤ 10 | Cc1nc2c(s1)C(=O)C=C(NCCCN(C)C)C2=O [Example 23, 5-{[3-(dimethylamino)propyl]amino}-2-methyl-1,3-benzothiazole-4,7-dione] | 
32 | ≤ 10 | Cc1nc2c(s1)C(=O)C=C(NCCC1CCCN1C)C2=O (stereo not drawn) [Example 24, 2-methyl-5-{[2-(1-methylpyrrolidin-2-yl)ethyl]amino}-1,3-benzothiazole-4,7-dione] | 
33 | ≤ 10 | Cc1nc2c(s1)C(=O)C=C(NCCCN1CCCCC1C)C2=O (stereo not drawn) [Example 25, 2-methyl-5-{[3-(2-methylpiperidin-1-yl)propyl]amino)-1,3-benzothiazole-4,7-dione] | 
34 | ≤ 10 | Cc1nc2c(s1)C(=O)C=C(NCCCCN(C)C)C2=O [Example 26, 5-{[4-(dimethylamino)butyl]amino}-2-methyl-1,3-benzothiazole-4,7-dione] | 
35 | ≤ 10 | Cc1nc2c(s1)C(=O)C=C(NCCCCCN(C)C)C2=O [Example 27, 5-{[5-(dimethylamino)pentyl]amino}-2-methyl-1,3-benzothiazole-4,7-dione] | 
